Results from patent US12403132B2, “Methods of treating bone marrow failure syndromes and compositions for use in the same” (The Board of Trustees of the Leland Stanford Junior …, priority 2020, dated 2025).

System: NLK
Test: NLK expression in differentiating human progenitors (qRT-PCR, Western blot)
Format: cell-based
Set-up: reduction of NLK protein expression / NLK expression, % of control: concentration or dose not given beside the values
Conditions: for NLK expression, % of control: miRNAs or drugs, single and combined; for reduction of NLK protein expression: metformin
Protocol: FIG. 10. Metformin improves erythropoiesis through suppression of NLK expression. (Panel A) Control (shLuc—grey columns) or RPS19-insufficient (shRPS19-—black columns) progenitors were differentiated in erythroid media alone, vehicle or vehicle containing 50 mM metformin or 5 uM SD208 for 5 days. 5000 cells per treatment were lysed and immunopurified NLK was subjected to in vitro kinase assay to determine phosphorylation potential against 3 recognized NLK substrates; NLK itself (upper), c-Myb (middle) or raptor (bottom). (Panel B) Simultaneously, qRT-PCR was performed to examine NLK (upper) and RPS19 (lower) mRNA expression. (Panel C) Active NLK was purified from activated Kp53A1 cells and subjected to in vitro kinase assay in the presence of 0, 50 nM, 50 μM, or 50 mM metformin or SD208. The phosphorylation of NLK (upper), c-Myb (middle) and raptor (lower) was determined after 30 mins. (Panel D) CD34+ progenitors were transduced with a combination of either shRNA against luciferase (shLuc—grey columns) or RPS19 (shRPS19—black columns) and siRNA against a non-targeting sequence (NT) or NLK (siNLK). After 14 days differentiation in the presence or absence of metformin, cells were counted and the percentage of cells with surface expression of CD235 and CD11b were determined by flow cytometry, to yield the number of CD235+ erythroid (upper) and CD11b+ myeloid (lower) cells. The total number of cells is expressed as a percentage of the number of each cell type in the control (untreated/shLuc/NT). […] Statistics: two-tailed Student's t test, significant *P<0.05
RNA was extracted by using total RNA mini kit (Bio-Rad). RNA was transcribed into cDNA by using the iScript cDNA Synthesis Kit (Bio-Rad). The quantitative RT-PCR (qRT-PCR) reaction was run with iQ SYBR Green MasterMix (Bio-Rad) using the CFX384 Touch Real-Time PCR Detection System (Bio-Rad). 7SL small cytoplasmic RNA14 was used as an internal control. miRNA was quantified using TaqMan® Small RNA Assays (Applied Biosystems) as per manufacturer's directions and normalized to snoRNA. Fold change of mRNA and miRNA was calculated by using the comparative Ct method.
Antibodies against RPS19 (#AB40833; Abcam; 1:200 dilution), NLK (#AB97642; Abcam; 1:1000 dilution) c-Myb (#12319; Cell Signaling; 1;1000 dilution), raptor (#AB26264; Abcam 1;1000 dilution), phosphor-Serine (#525280; Calbiochem; 1:1000 dilution), S6K (#9202; Cell Signaling; 1:500 dilution), and 4E-BP1 (#9452; Cell Signaling; 1:500 dilution), and GAPDH (#MAB374; Millipore; 1:10000) were used according to manufacturer's instructions. The target proteins were analyzed by using SuperSignal® West Pico Chemiluminescent Substrate for horseradish peroxidase (Thermo Scientific). Densitometry was performed using Image J software (http://rsb.info.nih.gov/ij/). When indicated, proteins were co-immunoprecipitated prior to immunoblotting. Cell lysates were normalized for protein before preclearing with Protein A/G Agarose (Upstate) for 30 min, before incubating with indicated antibody overnight. Immune complexes were precipitated with Protein A/G Agarose and separated by SDS-PAGE, before being subjected to immunoblotting.
NLK kinase activity was performed as published (5). For Western blotting, antibodies against NLK (#AB97642; Abcam; 1:1000 dilution) and GAPDH (#MAB374; Millipore; 1:10000) were used according to manufacturer's instructions.
MessengerRNA was quantified as described (5). MicroRNA was quantified using TaqMan® Small RNA Assays (Applied Biosystems) as per manufacturer's directions and normalized to snoRNA.

Structure (SMILES)	influence on NLK expression (5 uM SD208)	reduction of NLK mRNA expression (RPS19-insufficiency, 50 mM) [%]	reduction of NLK mRNA expression (control, 50 mM) [%]	reduction of NLK protein (differentiating HSPCs, 50 mM) [%]	NLK expression, % of control [%]	NLK expression (RPS19-insufficient and control cells)	reduction of NLK protein expression (RPS19-insufficient cultures) [%]	reduction of NLK protein expression (control cultures) [%]
Fc1ccc(Cl)cc1-c1nc(Nc2ccncc2)c2nccnc2n1 [SD208]	did not significantly influence							
CC(C)=CCC[C@](C)(O[C@@H]1O[C@H](CO[C@@H]2O[C@H](CO)[C@@H](O)[C@H](O)[C@H]2O)[C@@H](O)[C@H](O)[C@H]1O)[C@H]1CC[C@]2(C)[C@@H]1[C@H](O)C[C@@H]1[C@@]3(C)CC[C@H](O[C@@H]4O[C@H](CO)[C@@H](O)[C@H](O)[C@H]4O[C@@H]4O[C@H](CO)[C@@H](O)[C@H](O)[C@H]4O)C(C)(C)[C@@H]3CC[C@]12C [ginsenoside Rb1]		43.2	43.8	46.4	65.4			
CN(C)C(=N)N=C(N)N [metformin]					40.6	similarly suppressed	65.4	62.6
